Laboratory results from patent publication US20250163104A1, “MACROCYCLIC IMMUNOMODULATORS” (priority 2021, published 2025).
Where a SMILES comes first, the peptide text is derived from it. Bridges are numbered along the chain shown (N, C = ends). [ ]: non-standard residue; d: D form. The star is where a group is joined. ξ: configuration not given here. Phe(4-COOH) = N[C@@H](Cc1ccc(C(=O)O)cc1)C(=O)O; Bip = N[C@@H](Cc1ccc(-c2ccccc2)cc1)C(=O)O; Phe(3-Me) = Cc1cccc(C[C@H](N)C(=O)O)c1; ξW = NC(Cc1c[nH]c2ccccc12)C(=O)O; 4Pal = N[C@@H](Cc1ccncc1)C(=O)O; Cit = NC(=O)NCCC[C@H](N)C(=O)O; Carboxymethyl = O=C(O)C*; Nle = CCCC[C@H](N)C(=O)O; Orn = NCCC[C@H](N)C(=O)O; Dab = NCC[C@H](N)C(=O)O; Dap = NC[C@H](N)C(=O)O

Biological target: T1, human PD-1 / PD-L1-Ig binding on Jurkat cell line over-expressing human PD-1 (Jurkat-PD-1) (Homo sapiens, UniProt Q15116)
T1 construct: expressed in transfected cells; host or cells: Jurkat
T1 sequence (Q15116 25-288): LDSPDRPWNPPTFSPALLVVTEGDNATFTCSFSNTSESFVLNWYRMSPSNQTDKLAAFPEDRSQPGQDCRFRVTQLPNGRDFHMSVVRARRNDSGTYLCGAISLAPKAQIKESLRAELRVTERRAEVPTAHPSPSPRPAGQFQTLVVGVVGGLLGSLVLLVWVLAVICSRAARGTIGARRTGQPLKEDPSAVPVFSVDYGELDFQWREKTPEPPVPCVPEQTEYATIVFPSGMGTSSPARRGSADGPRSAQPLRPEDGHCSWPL
Test: Jurkat-PD-1 Cell Binding High-Content Screening Assay (CBA)
Format: cell-based
Details: Jurkat-PD-1 cells, PE-labeled PD-L1-Ig 20 nM final; read-out: Jurkat HPD1_PDL1 IC50
Procedure, shortened: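 PE-PD-L1-Ig 20 nM final; cells in DMEM/10% FCS; cpd pre-incubation 2 h, 37° C; ligand 1 h; PFA fix + Hoechst 33342; high-content imaging read-out.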

Question: Which IC50 does the source give for `CCCC[C@@H]1NC(=O)[C@H](CCN)NC(=O)[C@@H](CC(C)C)NC(=O)[C@H](CCCN)NC(=O)[C@H](C(C)C)NC(=O)[C@H](Cc2ccc(-c3ccccc3)cc2)NC(=O)[C@H](C(C)C)NC(=O)[C@H](Cc2cccc(C)c2)NC(=O)[C@H](CC(=O)O)NC(=O)[C@H](Cc2ccc(OCC(=O)O)cc2)NC(=O)[C@H](Cc2ccncc2)NC(=O)CSC[C@@H](C(=O)N[C@@H](C)C(N)=O)NC(=O)[C@H]([C@@H](C)O)NC(=O)[C@H](C(C)C)NC1=O` [Compound 1199] ({CH2CO}-[4Pal]Y(Carboxymethyl)D[Phe(3-Me)]V[Bip]V[Orn][dL][Dab][Nle]VTCA-NH2; thioether N-14) here?
Answer: 4.1 nM

Question: `Cc1cccc(C[C@@H]2NC(=O)[C@H](CC(=O)O)NC(=O)[C@H](Cc3ccc(OCC(=O)O)cc3)NC(=O)[C@H](Cc3ccncc3)NC(=O)CSC[C@@H](C(=O)N[C@@H](C)C(N)=O)NC(=O)[C@H]([C@@H](C)O)NC(=O)[C@H](C(C)C)NC(=O)[C@H](CC3CCCCC3)NC(=O)[C@H](CCN)NC(=O)[C@@H](CC(C)C)NC(=O)[C@H](CCCN)NC(=O)[C@H](C(C)C)NC(=O)[C@H](Cc3ccc(-c4ccccc4)cc3)NC(=O)[C@H](C(C)C)NC2=O)c1` [Compound 1200] was tested. Which IC50 did it give?
Answer: 5.4 nM

Question: Which IC50 does the source give for `CCCC[C@@H]1NC(=O)[C@H](CCN)NC(=O)[C@@H](CC(C)C)NC(=O)[C@H](CCCN)NC(=O)[C@H](CCCNC(N)=O)NC(=O)[C@H](Cc2ccc(-c3ccccc3)cc2)NC(=O)[C@H](C(C)C)NC(=O)[C@H](Cc2cccc(C)c2)NC(=O)[C@H](CC(=O)O)NC(=O)[C@H](Cc2ccc(C(=O)O)cc2)NC(=O)[C@H](CN)NC(=O)CSC[C@@H](C(=O)N[C@@H](C)C(N)=O)NC(=O)[C@H]([C@@H](C)O)NC(=O)[C@H](C(C)C)NC1=O` [Compound 1201] ({CH2CO}-[Dap][Phe(4-COOH)]D[Phe(3-Me)]V[Bip][Cit][Orn][dL][Dab][Nle]VTCA-NH2; thioether N-14) here?
Answer: 3.4 nM

Question: With `Cc1cccc(C[C@@H]2NC(=O)[C@H](CC(=O)O)NC(=O)[C@H](Cc3ccc(C(=O)O)cc3)NC(=O)[C@H](CN)NC(=O)CSC[C@@H](C(=O)N[C@@H](C)C(N)=O)NC(=O)[C@H]([C@@H](C)O)NC(=O)[C@H](C(C)C)NC(=O)[C@H](CC3CCCCC3)NC(=O)[C@H](CCN)NC(=O)[C@@H](CC(C)C)NC(=O)[C@H](CCCN)NC(=O)[C@H](CCCNC(N)=O)NC(=O)[C@H](Cc3ccc(-c4ccccc4)cc3)NC(=O)[C@H](C(C)C)NC2=O)c1` [Compound 1202] as the compound, how does the IC50 read?
Answer: 9.8 nM

Question: For `CCCC[C@@H]1NC(=O)[C@H](CCN)NC(=O)[C@@H](CC(C)C)NC(=O)[C@H](CCCN)NC(=O)[C@H]([C@@H](C)CC)NC(=O)[C@H](Cc2ccc(-c3ccccc3)cc2)NC(=O)[C@H](C(C)C)NC(=O)[C@H](Cc2cccc(C)c2)NC(=O)[C@H](CC(=O)O)NC(=O)[C@H](Cc2ccc(C(=O)O)cc2)NC(=O)[C@H](CN)NC(=O)CSC[C@@H](C(=O)N[C@@H](C)C(N)=O)NC(=O)[C@H]([C@@H](C)O)NC(=O)[C@H](C(C)C)NC1=O` [Compound 1203], which IC50 is on record?
Answer: 47.4 nM

Question: For `CC[C@H](C)[C@@H]1NC(=O)[C@H](Cc2ccc(-c3ccccc3)cc2)NC(=O)[C@H](C(C)C)NC(=O)[C@H](Cc2cccc(C)c2)NC(=O)[C@H](CC(=O)O)NC(=O)[C@H](Cc2ccc(C(=O)O)cc2)NC(=O)[C@H](CN)NC(=O)CSC[C@@H](C(=O)N[C@@H](C)C(N)=O)NC(=O)[C@H]([C@@H](C)O)NC(=O)[C@H](C(C)C)NC(=O)[C@H](CC2CCCCC2)NC(=O)[C@H](CCN)NC(=O)[C@@H](CC(C)C)NC(=O)[C@H](CCCN)NC1=O` [Compound 1204], which IC50 is on record?
Answer: 5.7 nM

Question: `CCCC[C@@H]1NC(=O)[C@H](CCN)NC(=O)[C@@H](CC(C)C)NC(=O)[C@H](CCCN)NC(=O)[C@H](C(C)C)NC(=O)[C@H](Cc2ccc(-c3ccccc3)cc2)NC(=O)[C@H](C(C)C)NC(=O)[C@H](Cc2cccc(C)c2)NC(=O)[C@H](CC(=O)O)NC(=O)[C@H](Cc2ccc(C(=O)O)cc2)NC(=O)[C@H](CN)NC(=O)CSC[C@@H](C(=O)N[C@@H](C)C(N)=O)NC(=O)[C@H]([C@@H](C)O)NC(=O)[C@H](C(C)C)NC1=O` [Compound 1205] ({CH2CO}-[Dap][Phe(4-COOH)]D[Phe(3-Me)]V[Bip]V[Orn][dL][Dab][Nle]VTCA-NH2; thioether N-14) was tested. Which IC50 did it give?
Answer: 10.7 nM

Question: With `Cc1cccc(C[C@@H]2NC(=O)[C@H](CC(=O)O)NC(=O)[C@H](Cc3ccc(C(=O)O)cc3)NC(=O)[C@H](CN)NC(=O)CSC[C@@H](C(=O)N[C@@H](C)C(N)=O)NC(=O)[C@H]([C@@H](C)O)NC(=O)[C@H](C(C)C)NC(=O)[C@H](CC3CCCCC3)NC(=O)[C@H](CCN)NC(=O)[C@@H](CC(C)C)NC(=O)[C@H](CCCN)NC(=O)[C@H](C(C)C)NC(=O)[C@H](Cc3ccc(-c4ccccc4)cc3)NC(=O)[C@H](C(C)C)NC2=O)c1` [Compound 1206] as the compound, how does the IC50 read?
Answer: 8.9 nM

Question: Which IC50 does the source give for `CCCC[C@@H]1NC(=O)[C@H](CCN)NC(=O)[C@@H](CC(C)C)NC(=O)[C@H](CCCN)NC(=O)[C@H](CCCNC(N)=O)NC(=O)[C@H](Cc2ccc(-c3ccccc3)cc2)NC(=O)[C@H](C(C)C)NC(=O)[C@H](Cc2cccc(C)c2)NC(=O)[C@H](CC(=O)O)NC(=O)[C@H](Cc2ccc(OCC(=O)O)cc2)NC(=O)[C@H](CN)NC(=O)CSC[C@@H](C(=O)N[C@@H](C)C(N)=O)NC(=O)[C@H]([C@@H](C)O)NC(=O)[C@H](C(C)C)NC1=O` [Compound 1207] ({CH2CO}-[Dap]Y(Carboxymethyl)D[Phe(3-Me)]V[Bip][Cit][Orn][dL][Dab][Nle]VTCA-NH2; thioether N-14) here?
Answer: 6.8 nM

Question: With `Cc1cccc(C[C@@H]2NC(=O)[C@H](CC(=O)O)NC(=O)[C@H](Cc3ccc(OCC(=O)O)cc3)NC(=O)[C@H](CN)NC(=O)CSC[C@@H](C(=O)N[C@@H](C)C(N)=O)NC(=O)[C@H]([C@@H](C)O)NC(=O)[C@H](C(C)C)NC(=O)[C@H](CC3CCCCC3)NC(=O)[C@H](CCN)NC(=O)[C@@H](CC(C)C)NC(=O)[C@H](CCCN)NC(=O)[C@H](CCCNC(N)=O)NC(=O)[C@H](Cc3ccc(-c4ccccc4)cc3)NC(=O)[C@H](C(C)C)NC2=O)c1` [Compound 1208] as the compound, how does the IC50 read?
Answer: 2.7 nM

Question: `CCCC[C@@H]1NC(=O)[C@H](CCN)NC(=O)[C@@H](CC(C)C)NC(=O)[C@H](CCCN)NC(=O)[C@H]([C@@H](C)CC)NC(=O)[C@H](Cc2ccc(-c3ccccc3)cc2)NC(=O)[C@H](C(C)C)NC(=O)[C@H](Cc2cccc(C)c2)NC(=O)[C@H](CC(=O)O)NC(=O)[C@H](Cc2ccc(OCC(=O)O)cc2)NC(=O)[C@H](CN)NC(=O)CSC[C@@H](C(=O)N[C@@H](C)C(N)=O)NC(=O)[C@H]([C@@H](C)O)NC(=O)[C@H](C(C)C)NC1=O` [Compound 1209] was tested. Which IC50 did it give?
Answer: 9.9 nM

Question: How did the IC50 turn out when `CC[C@H](C)[C@@H]1NC(=O)[C@H](Cc2ccc(-c3ccccc3)cc2)NC(=O)[C@H](C(C)C)NC(=O)[C@H](Cc2cccc(C)c2)NC(=O)[C@H](CC(=O)O)NC(=O)[C@H](Cc2ccc(OCC(=O)O)cc2)NC(=O)[C@H](CN)NC(=O)CSC[C@@H](C(=O)N[C@@H](C)C(N)=O)NC(=O)[C@H]([C@@H](C)O)NC(=O)[C@H](C(C)C)NC(=O)[C@H](CC2CCCCC2)NC(=O)[C@H](CCN)NC(=O)[C@@H](CC(C)C)NC(=O)[C@H](CCCN)NC1=O` [Compound 1210] was run?
Answer: 11.5 nM

Question: Which IC50 does the source give for `CCCC[C@@H]1NC(=O)[C@H](CCN)NC(=O)[C@@H](CC(C)C)NC(=O)[C@H](CCCN)NC(=O)[C@H](C(C)C)NC(=O)[C@H](Cc2ccc(-c3ccccc3)cc2)NC(=O)[C@H](C(C)C)NC(=O)[C@H](Cc2cccc(C)c2)NC(=O)[C@H](CC(=O)O)NC(=O)[C@H](Cc2ccc(OCC(=O)O)cc2)NC(=O)[C@H](CN)NC(=O)CSC[C@@H](C(=O)N[C@@H](C)C(N)=O)NC(=O)[C@H]([C@@H](C)O)NC(=O)[C@H](C(C)C)NC1=O` [Compound 1211] ({CH2CO}-[Dap]Y(Carboxymethyl)D[Phe(3-Me)]V[Bip]V[Orn][dL][Dab][Nle]VTCA-NH2; thioether N-14) here?
Answer: 8.9 nM

Question: How did the IC50 turn out when `Cc1cccc(C[C@@H]2NC(=O)[C@H](CC(=O)O)NC(=O)[C@H](Cc3ccc(OCC(=O)O)cc3)NC(=O)[C@H](CN)NC(=O)CSC[C@@H](C(=O)N[C@@H](C)C(N)=O)NC(=O)[C@H]([C@@H](C)O)NC(=O)[C@H](C(C)C)NC(=O)[C@H](CC3CCCCC3)NC(=O)[C@H](CCN)NC(=O)[C@@H](CC(C)C)NC(=O)[C@H](CCCN)NC(=O)[C@H](C(C)C)NC(=O)[C@H](Cc3ccc(-c4ccccc4)cc3)NC(=O)[C@H](C(C)C)NC2=O)c1` [Compound 1212] was run?
Answer: 6 nM

Question: With `CC(C)C[C@@H]1NC(=O)C(Cc2c[nH]c3ccccc23)NC(=O)[C@H](CC(=O)O)NC(=O)[C@H](Cc2ccc(O)cc2)NC(=O)[C@H](Cc2ccccc2)NC(=O)CSC[C@@H](C(=O)N[C@@H](C)C(N)=O)NC(=O)[C@H]([C@@H](C)O)NC(=O)[C@H](C(C)C)NC(=O)[C@H](CC(C)C)NC(=O)[C@H](CC(N)=O)NC(=O)[C@@H](CC(C)C)NC(=O)[C@H](CN)NC(=O)[C@H](C(C)C)NC(=O)[C@H](Cc2ccc(-c3ccccc3)cc2)NC1=O` (stereo partly drawn) [Compound 1213] ({CH2CO}-FYD[ξW]L[Bip]V[Dap][dL]NLVTCA-NH2; thioether N-14) as the compound, how does the IC50 read?
Answer: 20.8 nM

Question: How did the IC50 turn out when `CC(C)C[C@@H]1NC(=O)C(Cc2c[nH]c3ccccc23)NC(=O)[C@H](CC(=O)O)NC(=O)[C@H](Cc2ccc(O)cc2)NC(=O)[C@H](Cc2ccccc2)NC(=O)CSC[C@@H](C(=O)N[C@@H](C)C(N)=O)NC(=O)[C@H](CO)NC(=O)[C@H](C(C)C)NC(=O)[C@H](CC(C)C)NC(=O)[C@H](CC(N)=O)NC(=O)[C@@H](CC(C)C)NC(=O)[C@H](CCN)NC(=O)[C@H](C(C)C)NC(=O)[C@H](Cc2ccc(-c3ccccc3)cc2)NC1=O` (stereo partly drawn) [Compound 1214] ({CH2CO}-FYD[ξW]L[Bip]V[Dab][dL]NLVSCA-NH2; thioether N-14) was run?
Answer: 14.1 nM

Question: `CC(C)C[C@@H]1NC(=O)C(Cc2c[nH]c3ccccc23)NC(=O)[C@H](CC(=O)O)NC(=O)[C@H](Cc2ccc(O)cc2)NC(=O)[C@H](Cc2ccccc2)NC(=O)CSC[C@@H](C(=O)NCC(N)=O)NC(=O)[C@H]([C@@H](C)O)NC(=O)[C@H](C(C)C)NC(=O)[C@H](CC(C)C)NC(=O)[C@H](CC(N)=O)NC(=O)[C@@H](CC(C)C)NC(=O)[C@H](CCN)NC(=O)[C@H](C(C)C)NC(=O)[C@H](Cc2ccc(-c3ccccc3)cc2)NC1=O` (stereo partly drawn) [Compound 1215] ({CH2CO}-FYD[ξW]L[Bip]V[Dab][dL]NLVTCG-NH2; thioether N-14) was tested. Which IC50 did it give?
Answer: 47 nM
